Measurements as given in patent publication US20250051327A1, “MALT-1 MODULATORS” (EXSCIENTIA AI LIMITED, priority 2020, published 2025).

Assays:
[1] = system: IL-2 secretion by human effector memory T cells (TEM); experiment: Effector memory T cells IL-2 release assay; format: cell-based; details: T-cell; human CD4+ effector memory T cells, CD3/CD28 bead stimulation, 24 h; read-out: CD4TC IL2 IC50
How it was run: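 Human CD4+ effector memory T cells from healthy-donor buffy coats were stimulated with anti-CD3/CD28 Dynabeads and exposed to 10 semi-log compound doses (0.1% DMSO) for 24 h at 37 °C. Supernatant IL-2 was measured by HTRF, and IC50 came from a 4-parameter logistic fit to maximal IL-2. Viability was checked by flow cytometry.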

[2] = target: Recombinant human MALT-1 (amino acids 340-824) (Homo sapiens (Human), UniProt Q9UDY8); experiment: MALT-1 inhibition assay (fluorogenic substrate Ac-LRSR-Rh110-DP); format: biochemical; details: recombinant human MALT-1, substrate Ac-LRSR-Rh110-DP
How it was run: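 Reactions were started with fluorogenic substrate Ac-LRSR-Rh110-DP (10 μM final) against 3 nM enzyme and kept dark at 25° C for 60 minutes. IC50 values came from 4-parameter logistic fits of percent inhibition calculated from relative fluorescence units.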

Recombinant human MALT-1 (amino acids 340-824), sequence (Q9UDY8 340-824): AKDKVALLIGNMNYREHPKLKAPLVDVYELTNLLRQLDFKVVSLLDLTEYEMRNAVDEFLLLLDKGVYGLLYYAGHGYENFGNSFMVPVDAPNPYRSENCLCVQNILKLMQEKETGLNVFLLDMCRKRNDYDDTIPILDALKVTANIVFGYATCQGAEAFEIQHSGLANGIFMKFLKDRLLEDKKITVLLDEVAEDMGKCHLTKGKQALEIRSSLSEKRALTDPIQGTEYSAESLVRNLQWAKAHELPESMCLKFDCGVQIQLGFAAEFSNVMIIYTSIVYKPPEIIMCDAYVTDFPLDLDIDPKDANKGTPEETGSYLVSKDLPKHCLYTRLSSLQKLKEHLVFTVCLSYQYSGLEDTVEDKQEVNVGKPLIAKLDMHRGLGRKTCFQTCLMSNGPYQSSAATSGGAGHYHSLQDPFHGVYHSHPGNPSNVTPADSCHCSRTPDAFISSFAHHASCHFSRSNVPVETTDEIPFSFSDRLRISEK

IC50 [1] [nM] | IC50 [2] [nM] | Structure (SMILES)
128 | 123 | CN(C(=O)C1CS(=O)(=O)C1)[C@@H](c1ccc(N2CCCc3c2cnc2cc(Cl)nn32)cc1)C(F)(F)F [CPD0021575, N-[(1S)-1-(4-{4-chloro-2,3,7,10-tetraazatricyclo[7.4.0.0^2,6]trideca-1(9),3,5,7-tetraen-10-yl}phenyl)-2,2,2-trifluoroethyl]-N-methyl-1,1-dioxo-1λ^6-thietane-3-carboxamide]
333 | 146 | CCC(O)C(=O)N(C)[C@@H](c1ccc(N2CCCc3c2cnc2cc(Cl)nn32)cc1)C(F)(F)F (stereo partly drawn) [CPD0021576, N-[(1S)-1-(4-{4-chloro-2,3,7,10-tetraazatricyclo[7.4.0.0^2,6]trideca-1(9),3,5,7-tetraen-10-yl}phenyl)-2,2,2-trifluoroethyl]-2-hydroxy-N-methylbutanamide]
538 | 370 | CN([C@@H](c1ccc(N2CCCc3c2cnc2cc(Cl)nn32)cc1)C(F)(F)F)S(C)(=O)=O [CPD0021581, N-[(1S)-1-(4-{4-chloro-2,3,7,10-tetraazatricyclo[7.4.0.0^2,6]trideca-1(9),3,5,7-tetraen-10-yl}phenyl)-2,2,2-trifluoroethyl]-N-methylmethanesulfonamide]
1680 | 863 | COc1ccc2ncc(N(C)c3ccc([C@H](N(C)C(=O)C4CCS(=O)(=O)CC4)C(F)(F)F)cc3)cc2n1 [CPD0021585, N-methyl-1,1-dioxo-N-[(1S)-2,2,2-trifluoro-1-{4-[(6-methoxy-1,5-naphthyridin-3-yl)(methyl)amino]phenyl}ethyl]-1λ^6-thiane-4-carboxamide]
1470 | 302 | CN([C@@H](c1ccc(N2CCCc3c2cnc2cc(Cl)nn32)cc1)C(F)(F)F)[S+]([O-])C(C)(C)C (stereo partly drawn) [CPD0021661]
195 | 83 | CN(C(=O)C1CCS(=O)(=O)CC1)[C@@H](c1ccc(N2CCCc3c2cnc2cc(F)nn32)cc1)C(F)(F)F [CPD0021664, N-methyl-1,1-dioxo-N-[(1S)-2,2,2-trifluoro-1-(4-{4-fluoro-2,3,7,10-tetraazatricyclo[7.4.0.0^2,6]trideca-1(9),3,5,7-tetraen-10-yl}phenyl)ethyl]-1λ^6-thiane-4-carboxamide]
2100 | 638 | CN(C(=O)C1CCS(=O)(=O)CC1)[C@@H](c1ccc(N2CCCc3c2cnc2cc(F)nn32)nc1)C(F)(F)F [CPD0021665, N-methyl-1,1-dioxo-N-[(1S)-2,2,2-trifluoro-1-(6-{4-fluoro-2,3,7,10-tetraazatricyclo[7.4.0.0^2,6]trideca-1(9),3,5,7-tetraen-10-yl}pyridin-3-yl)ethyl]-1λ^6-thiane-4-carboxamide]
412 | 339 | COC(=O)N(C)[C@@H](c1ccc(N2CCCc3c2cnc2cc(Cl)nn32)cc1)C(F)(F)F [CPD0021733, Methyl N-[(1S)-1-(4-{4-chloro-2,3,7,10-tetraazatricyclo[7.4.0.0^2,6]trideca-1(9),3,5,7-tetraen-10-yl}phenyl)-2,2,2-trifluoroethyl]-N-methylcarbamate]
748 | 368 | CN(C(=O)CN1CCNCC1)[C@@H](c1ccc(N2CCCc3c2cnc2cc(Cl)nn32)cc1)C(F)(F)F [CPD0021745, N-[(1S)-1-(4-{4-chloro-2,3,7,10-tetraazatricyclo[7.4.0.0^2,6]trideca-1(9),3,5,7-tetraen-10-yl}phenyl)-2,2,2-trifluoroethyl]-N-methyl-2-(piperazin-1-yl)acetamide]
466 | 522 | CN1CCN(CC(=O)N(C)[C@@H](c2ccc(N3CCCc4c3cnc3cc(Cl)nn43)cc2)C(F)(F)F)CC1 [CPD0021746, N-[(1S)-1-(4-{4-chloro-2,3,7,10-tetraazatricyclo[7.4.0.0^2,6]trideca-1(9),3,5,7-tetraen-10-yl}phenyl)-2,2,2-trifluoroethyl]-N-methyl-2-(4-methylpiperazin-1-yl)acetamide]
111 | 76 | CN(C(=O)C1CCS(=O)(=O)CC1)[C@@H](c1ccc(N2CCCc3c2cnc2cc(Cl)nn32)c(F)c1)C(F)(F)F [CPD0021750, N-[(1S)-1-(4-{4-chloro-2,3,7,10-tetraazatricyclo[7.4.0.0^2,6]trideca-1(9),3,5,7-tetraen-10-yl}-3-fluorophenyl)-2,2,2-trifluoroethyl]-N-methyl-1,1-dioxo-1λ^6-thiane-4-carboxamide]
3280 | 2120 | CN(C(=O)C1CCS(=O)(=O)CC1)[C@@H](c1ccc(N2CCCc3c2cnc2c(Cl)cnn32)cc1)C(F)(F)F [CPD0021751, N-[(1S)-1-(4-{5-chloro-2,3,7,10-tetraazatricyclo[7.4.0.0^2,6]trideca-1(9),3,5,7-tetraen-10-yl}phenyl)-2,2,2-trifluoroethyl]-N-methyl-1,1-dioxo-1λ^6-thiane-4-carboxamide]
845 | 433 | O=C(N[C@@H](c1ccc(N2CCCc3c2cnc2cc(Cl)nn32)cc1)C(F)(F)F)C1CCS(=O)(=O)CC1 [CPD0021755, N-[(1S)-1-(4-{4-chloro-2,3,7,10-tetraazatricyclo[7.4.0.0^2,6]trideca-1(9),3,5,7-tetraen-10-yl}phenyl)-2,2,2-trifluoroethyl]-1,1-dioxo-1λ^e-thiane-4-carboxamide]
143 | 154 | CN(C(=O)[C@H]1CCCS(=O)(=O)C1)[C@@H](c1ccc(N2CCCc3c2cnc2cc(Cl)nn32)cc1)C(F)(F)F [CPD0021809]
194 | 63 | CN(C(=O)C1CCS(=N)(=O)CC1)[C@@H](c1ccc(N2CCCc3c2cnc2cc(Cl)nn32)cc1)C(F)(F)F (stereo partly drawn) [CPD0021810]
213 | 108 | CC1CCN(c2ccc([C@H](N(C)C(=O)C3CCS(=O)(=O)CC3)C(F)(F)F)cn2)c2cnc3cc(Cl)nn3c21 (stereo partly drawn) [CPD0021812, N-[(1S)-1-(6-{4-chloro-13-methyl-2,3,7,10-tetraazatricyclo[7.4.0.0^2,6]trideca-1(9),3,5,7-tetraen-10-yl}pyridin-3-yl)-2,2,2-trifluoroethyl]-N-methyl-1,1-dioxo-1λ^6-thiane-4-carboxamide]
228 | 332 | CSc1cc2ncc3c(n2n1)CCCN3c1ccc([C@H](N(C)C(=O)C2CCS(=O)(=O)CC2)C(F)(F)F)cc1 [CPD0021815, N-methyl-1,1-dioxo-N-[(1S)-2,2,2-trifluoro-1-{4-[4-(methylsulfanyl)-2,3,7,10-tetraazatricyclo[7.4.0.0^2,6]trideca-1(9),3,5,7-tetraen-10-yl]phenyl}ethyl]-1λ^6-thiane-4-carboxamide]
558 | 203 | CN(C(=O)CC1CCNC1)[C@@H](c1ccc(N2CCCc3c2cnc2cc(Cl)nn32)cc1)C(F)(F)F (stereo partly drawn) [CPD0021849, N-[(1S)-1-(4-{4-chloro-2,3,7,10-tetraazatricyclo[7.4.0.0^2,6]trideca-1(9),3,5,7-tetraen-10-yl}phenyl)-2,2,2-trifluoroethyl]-N-methyl-2-(pyrrolidin-3-yl)acetamide]
209 | 256 | CN(C(=O)CC1CCOC1)[C@@H](c1ccc(N2CCCc3c2cnc2cc(Cl)nn32)cc1)C(F)(F)F (stereo partly drawn) [CPD0021874, N-[(1S)-1-(4-{4-chloro-2,3,7,10-tetraazatricyclo[7.4.0.0^2,6]trideca-1(9),3,5,7-tetraen-10-yl}phenyl)-2,2,2-trifluoroethyl]-N-methyl-2-(oxolan-3-yl)acetamide]
588 | 369 | CN(C(=O)CC1CCCS1(=O)=O)[C@@H](c1ccc(N2CCCc3c2cnc2cc(Cl)nn32)cc1)C(F)(F)F (stereo partly drawn) [CPD0021934, N-[(1S)-1-(4-{4-chloro-2,3,7,10-tetraazatricyclo[7.4.0.0^2,6]trideca-1(9),3,5,7-tetraen-10-yl}phenyl)-2,2,2-trifluoroethyl]-2-(1,1-dioxo-1λ^6-thiolan-2-yl)-N-methylacetamide]
93 | 71 | CN(C(=O)C1CCS(=O)(=O)CC1)[C@@H](c1ccc(N2CC(C)(C)Cc3c2cnc2cc(Cl)nn32)cc1)C(F)(F)F [CPD0022149, N-[(1S)-1-(4-{4-chloro-12,12-dimethyl-2,3,7,10-tetraazatricyclo[7.4.0.0^2,6]trideca-1(9),3,5,7-tetraen-10-yl}phenyl)-2,2,2-trifluoroethyl]-N-methyl-1,1-dioxo-1λ^6-thiane-4-carboxamide]
178 | 123 | CN(C(=O)[C@H]1C[C@@](C)(O)C1)[C@@H](c1ccc(N2CCCc3c2cnc2cc(Cl)nn32)cc1)C(F)(F)F [CPD0072437, (1r,3s)-N-[(1S)-1-(4-{4-chloro-2,3,7,10-tetraazatricyclo[7.4.0.0^2,6]trideca-1(9),3,5,7-tetraen-10-yl}phenyl)-2,2,2-trifluoroethyl]-3-hydroxy-N,3-dimethylcyclobutane-1-carboxamide]
557 | 35 | CN(C(=O)[C@H]1C[C@H](C(=O)O)C1)[C@@H](c1ccc(N2CCCc3c2cnc2cc(Cl)nn32)cc1)C(F)(F)F [CPD0072439, (trans)-3-{[(1S)-1-(4-{4-chloro-2,3,7,10-tetraazatricyclo[7.4.0.0^2,6]trideca-1(9),3,5,7-tetraen-10-yl}phenyl)-2,2,2-trifluoroethyl](methyl)carbamoyl}cyclobutane-1-carboxylic acid]
222 | 113 | CN(C(=O)[C@H]1C[C@](O)(C(F)(F)F)C1)[C@@H](c1ccc(N2CCCc3c2cnc2cc(Cl)nn32)cc1)C(F)(F)F [CPD0072441, (1s,3s)-N-[(1S)-1-(4-{4-chloro-2,3,7,10-tetraazatricyclo[7.4.0.0^2,6]trideca-1(9),3,5,7-tetraen-10-yl}phenyl)-2,2,2-trifluoroethyl]-3-hydroxy-N-methyl-3-(trifluoromethyl)cyclobutane-1-carboxamide]
